ChEMBL document CHEMBL2007661, “Compounds: GSK PKIS; Assays: UNC Frye lab” (2012)
Where “and” joins values, the source holds several entries; their conditions need not be identical. Equal values may be shown once.

Experiments:
Conditions in all cases: at 1 µM
[1] = biological target: T1, Inhibitor of nuclear factor kappa-B kinase subunit epsilon (Homo sapiens) (UniProt Q14164)
T1 sequence (whole entry): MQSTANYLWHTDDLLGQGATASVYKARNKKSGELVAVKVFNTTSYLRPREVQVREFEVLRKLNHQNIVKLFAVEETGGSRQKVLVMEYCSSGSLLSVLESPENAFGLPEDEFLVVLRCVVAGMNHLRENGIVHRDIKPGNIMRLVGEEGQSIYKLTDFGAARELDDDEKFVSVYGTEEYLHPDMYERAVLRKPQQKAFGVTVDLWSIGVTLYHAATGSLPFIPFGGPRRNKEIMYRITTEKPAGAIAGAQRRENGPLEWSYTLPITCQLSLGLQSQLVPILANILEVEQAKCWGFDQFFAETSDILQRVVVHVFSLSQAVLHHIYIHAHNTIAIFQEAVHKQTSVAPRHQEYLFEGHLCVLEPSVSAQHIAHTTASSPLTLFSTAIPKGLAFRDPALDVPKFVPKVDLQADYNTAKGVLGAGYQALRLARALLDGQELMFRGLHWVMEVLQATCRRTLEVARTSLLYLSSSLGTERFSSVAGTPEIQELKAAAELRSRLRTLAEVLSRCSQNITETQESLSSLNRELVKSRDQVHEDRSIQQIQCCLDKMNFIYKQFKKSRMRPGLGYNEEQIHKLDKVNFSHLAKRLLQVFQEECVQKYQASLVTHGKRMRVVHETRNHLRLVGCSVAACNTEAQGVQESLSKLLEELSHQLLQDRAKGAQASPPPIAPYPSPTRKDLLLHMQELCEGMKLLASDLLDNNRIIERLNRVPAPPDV

[2] = biological target: T2, Serine/threonine-protein kinase TBK1 (Homo sapiens) (UniProt Q9UHD2)
T2 sequence (whole entry): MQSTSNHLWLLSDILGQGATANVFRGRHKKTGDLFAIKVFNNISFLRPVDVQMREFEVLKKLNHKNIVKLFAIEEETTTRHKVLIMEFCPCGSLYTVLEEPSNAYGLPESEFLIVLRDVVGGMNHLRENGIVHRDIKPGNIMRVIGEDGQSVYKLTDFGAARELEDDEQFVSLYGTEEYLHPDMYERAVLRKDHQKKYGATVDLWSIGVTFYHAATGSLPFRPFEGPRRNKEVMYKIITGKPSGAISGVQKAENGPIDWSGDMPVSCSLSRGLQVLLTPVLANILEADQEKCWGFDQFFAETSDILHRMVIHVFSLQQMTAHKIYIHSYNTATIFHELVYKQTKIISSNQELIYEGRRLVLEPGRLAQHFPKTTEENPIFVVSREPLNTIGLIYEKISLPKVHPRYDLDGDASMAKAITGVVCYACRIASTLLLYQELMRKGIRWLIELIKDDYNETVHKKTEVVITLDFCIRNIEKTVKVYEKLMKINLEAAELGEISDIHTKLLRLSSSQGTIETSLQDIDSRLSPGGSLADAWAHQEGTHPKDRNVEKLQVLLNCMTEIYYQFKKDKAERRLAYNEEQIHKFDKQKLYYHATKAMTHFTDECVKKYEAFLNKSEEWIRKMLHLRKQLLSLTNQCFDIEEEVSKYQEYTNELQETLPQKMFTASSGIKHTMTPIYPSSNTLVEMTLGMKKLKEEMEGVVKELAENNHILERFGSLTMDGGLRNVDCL

[3] = biological target: T3, Inhibitor of nuclear factor kappa-B kinase subunit alpha (Homo sapiens) (UniProt O15111)
T3 sequence (whole entry): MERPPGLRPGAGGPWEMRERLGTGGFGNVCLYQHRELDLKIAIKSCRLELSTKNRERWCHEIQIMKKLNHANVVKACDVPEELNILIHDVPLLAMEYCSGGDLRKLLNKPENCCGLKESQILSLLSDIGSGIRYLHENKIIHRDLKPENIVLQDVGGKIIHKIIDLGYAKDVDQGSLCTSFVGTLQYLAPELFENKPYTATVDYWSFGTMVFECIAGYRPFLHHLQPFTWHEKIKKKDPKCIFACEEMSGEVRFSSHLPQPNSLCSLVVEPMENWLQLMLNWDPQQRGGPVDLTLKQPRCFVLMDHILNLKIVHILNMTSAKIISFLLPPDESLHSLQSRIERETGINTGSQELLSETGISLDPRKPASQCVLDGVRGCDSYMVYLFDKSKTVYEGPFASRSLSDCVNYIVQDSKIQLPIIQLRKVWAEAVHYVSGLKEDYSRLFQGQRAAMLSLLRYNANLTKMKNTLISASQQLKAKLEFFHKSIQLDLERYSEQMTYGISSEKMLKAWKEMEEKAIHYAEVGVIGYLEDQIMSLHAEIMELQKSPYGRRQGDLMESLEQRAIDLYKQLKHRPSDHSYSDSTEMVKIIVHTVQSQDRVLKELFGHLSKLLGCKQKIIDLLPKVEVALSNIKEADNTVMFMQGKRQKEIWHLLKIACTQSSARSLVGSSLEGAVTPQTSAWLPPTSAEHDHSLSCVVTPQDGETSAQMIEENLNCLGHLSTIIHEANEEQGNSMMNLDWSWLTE

Row | inhibition [1] | inhibition [2] | inhibition [3] | Compound
1 | -1% and 0% | -1% | 2% and -8% | CS(=O)(=O)CCNCc1coc(-c2ccc3ncnc(Nc4ccc(OCc5ccccc5)cc4)c3c2)c1
2 | 2% | -2% and 0% | 4% and 5% | CC1=C(C(=O)Nc2ccc3[nH]ncc3c2)C(c2ccc(F)cc2)NC(=O)N1 (configuration not stated)
3 | 52% and 51% | 24% and 20% | -7% and 2% | CCn1c(-c2nonc2N)nc2c(C#CC(C)(C)O)nc(CN3CCCC3)cc21
4 | -2% | -6% | 0% and 1% | N#Cc1c(NC(=O)CN2CCOCC2)sc2c1CCCC2
5 | 2% | 3% and 4% | 2% and 4% | Cc1nnc(-c2ccc(C)c(-c3ccc(C(=O)NCc4ccc(Cl)cc4)cc3)c2)o1
6 | 1% and 3% | 4% and 1% | -3% and -4% | C[C@@H](Oc1cc(-n2cnc3ccc(OC[C@@H](O)CO)cc32)sc1C(N)=O)c1ccccc1Cl
7 | 45% | 55% and 52% | 1% | CCOc1ccc2c(-c3ccnc(Nc4cccc(C(F)(F)F)c4)n3)cnn2n1
8 | -1% and -2% | -2% and -5% | 3% and 1% | Cc1cc(-c2ccccn2)cc(C)c1/C=C/c1cncc(-c2nn[nH]n2)c1
9 | 92% and 91% | 86% and 87% | 5% and 4% | O=C1Nc2ccc(C(=O)c3ccco3)cc2C1=Cc1cc(Cl)c(O)c(Cl)c1
10 | 44% and 43% | 49% | 2% and 1% | COc1ccc2c(-c3ccnc(Nc4cccc(OC(F)(F)F)c4)n3)cnn2n1
11 | 2% and 3% | -2% and 2% | 1% | CCN(CC)S(=O)(=O)c1ccc(OC)c(Nc2ncc(-c3ccccc3)o2)c1
12 | 1% | 1% and 2% | 5% and 4% | Cc1ccc(NC(=O)c2ccoc2)cc1-c1ccc(C(=O)NCC2CC2)cc1
13 | 0% and -1% | 3% and -1% | -6% and -4% | CNC(=O)c1cncc(/C=C/c2c(C)cccc2C)c1
14 | 5% | 10% and 5% | -1% and 3% | COc1ccccc1Nc1ncc(-c2ccccc2)o1
15 | -3% and -1% | -7% and -1% | 2% | NS(=O)(=O)c1cccc(-c2cc3ccncc3cc2OCc2ccccc2)c1
16 | 39% and 41% | 61% and 57% | -3% | NS(=O)(=O)c1ccc(N/N=C2\C(=O)Nc3ccc(-c4cnco4)cc32)cc1
17 | 1% and 4% | 1% | -2% and -3% | ON=C1CCc2cc(-c3nc(C4CCNCC4)[nH]c3-c3ccncc3)ccc21
18 | -2% | -3% and -6% | 4% and 0% | Cc1cc(O)cc(C)c1/C=C/c1cncc(C(N)=O)c1
19 | 5% and 6% | 11% and 14% | 2% and 1% | C/C(Nc1ccc(S(N)(=O)=O)cc1)=C1/C(=O)Nc2ccccc21
20 | 0% and 2% | 0% | 16% and 15% | CS(=O)(=O)CCNCc1cc(-c2cc3c(Nc4ccc(OCc5cccc(F)c5)c(Cl)c4)ncnc3s2)cs1
21 | 6% and 4% | 13% and 14% | 1% and 4% | COc1cccc(-n2ncc3c(N/N=C/c4ccncc4)ncnc32)c1
22 | 1% | -1% | 1% and -2% | N#Cc1ccc2c(-c3ccnc(NC4CC4)n3)c(-c3ccc(F)cc3)nn2c1

Row | inhibition [1] | inhibition [2] | inhibition [3] | Compound
23 | 3% and 2% | 3% and 5% | 5% and 3% | CS(=O)(=O)Nc1ccc(-c2ccc3c(NC(=O)C4CC4)n[nH]c3c2)cc1
24 | 0% and -3% | -5% and 1% | 9% and 1% | Cc1ccc2c(-c3ccnc(Nc4ccc5c(c4)OCCO5)n3)c(-c3ccc(C(F)(F)F)cc3)nn2n1
25 | 18% | 23% and 27% | 4% and 3% | O=C1Nc2ccccc2/C1=C/Nc1ccc(-n2cncn2)cc1
26 | -2% | 2% and -3% | 1% and 2% | CN(C)c1cc2c(Nc3ccc4c(cnn4Cc4ccccc4)c3)ncnc2cn1
27 | 3% and 0% | 3% and 1% | 1% and 2% | FC(F)(F)c1cccc(-c2nn3ncccc3c2-c2ccnc(Nc3ccc4c(c3)OCCO4)n2)c1
28 | 2% | 3% | 4% and 5% | Cc1cc(O)cc(C)c1/C=C/c1cncc(-c2nn[nH]n2)c1
29 | 37% and 36% | 76% and 74% | 0% and -1% | CN(C)c1ccc2c(c1)/C(=C/Nc1ccc(S(N)(=O)=O)cc1)C(=O)N2
30 | 36% and 35% | 8% and 11% | 10% and 11% | CCn1c(-c2nonc2N)nc2c(C#CC(C)(C)O)nc(OC[C@H](N)c3ccccc3)cc21
31 | 22% and 26% | 31% and 38% | 1% and 2% | NS(=O)(=O)c1cccc(N/C=C2\C(=O)Nc3ccccc32)c1
32 | 10% and 11% | 65% and 61% | -2% | COc1cc2ncn(-c3cc(OCCc4ccccc4)c(C(N)=O)s3)c2cc1OC
33 | -7% and -6% | -6% and -7% | -6% | CC(=O)Nc1cccc(C#Cc2cncnc2Nc2ccc(OCc3cccc(F)c3)c(Cl)c2)c1
34 | 2% and 1% | 2% and 6% | -3% and 4% | CCS(=O)(=O)c1ccc(OC)c(Nc2ncc(-c3ccccc3Cl)o2)c1
35 | 1% | 1% and -2% | 2% and 3% | COc1ccc2ncnc(Nc3ccc(OCc4ccccc4)cc3)c2c1
36 | 2% and 0% | -2% and 0% | 15% and 18% | CCOc1nccc2c1nc(-c1nonc1N)n2CC
37 | -1% | -4% and -3% | 6% | Fc1ccc(-c2cc(-c3c[nH]nc3-c3ccccn3)ccn2)cc1
38 | -1% | 2% and 0% | 4% and 3% | COc1cccc(COc2cc(-n3cnc4ccccc43)sc2C(N)=O)c1
39 | -4% | -6% and -7% | 1% | CC(=O)NCc1cccc(C#Cc2cncnc2Nc2ccc(OCc3cccc(F)c3)c(Cl)c2)c1
40 | 41% and 42% | 45% and 44% | -5% | NC(=O)c1cccc(Nc2nccc(Nc3cccc4[nH]ncc34)n2)c1
41 | 1% and 4% | 0% and 2% | -3% | N#Cc1c(NC(=O)c2ccccc2F)sc2c1CCCC2
42 | -1% and 0% | 2% and 3% | -4% | Fc1ccc(-c2c(-c3ccncc3)nc3n2CCS3)cc1
43 | 13% and 14% | 17% and 13% | 30% | CCn1c(-c2nonc2N)nc2cncc(C(=O)NCCNC)c21
44 | 3% and 2% | 2% and 0% | -2% and 4% | COc1cc2ncn(-c3cc(O[C@H](C)c4ccccc4Cl)c(C(N)=O)s3)c2cc1OC
